Consider 2 compounds from ChEMBL document CHEMBL5653635, “Induction of apoptosis and cell cycle arrest by CP-358,774, an inhibitor of epidermal growth factor receptor tyrosine kinase” (Cancer Res, 1997).

Structures are written as SMILES. Activity calls are given as the source filed them. No cut-off for these calls is given here.

Data set [1] addresses Insulin-like growth factor 1 receptor (Homo sapiens) (UniProt P08069). Briefly: Inhibition of IGF-IR (711 to 1377 residues) (unknown origin) expressed in baculovirus-infected Sf9 cells at 20 uM incubated for 8 mins by colorimetry based assay relative to control.
Data set [2] concerns the target Insulin receptor (Homo sapiens) (UniProt P06213). In words: Inhibition of human recombinant insulin receptor expressed in baculovirus at 10 uM incubated for 8 mins by colorimetry based assay.
Data set [3] addresses Insulin-like growth factor 1 receptor (Homo sapiens) (UniProt P08069). In words: Inhibition of IGF-IR (711 to 1377 residues) (unknown origin) expressed in baculovirus-infected Sf9 cells at 10 uM incubated for 8 mins by colorimetry based assay.
For data set [4] the target is unchanged. Briefly: Inhibition of insulin induced phosphorylation of IRS-1 in serum starved human HN5 cells at 1 uM preincubated for 1 hr followed by insulin stimulation and measured after 5 mins by immunoblot analysis. Format: cell-based. The conditions noted are these: time 65.0 min. In general terms: In western blotting, separated proteins are transferred to a membrane and probed.

Data set [5] has as its target Insulin receptor (Homo sapiens) (UniProt P06213). Briefly: Inhibition of insulin induced phosphorylation of insulin receptor in serum starved human HN5 cells at 1 uM preincubated for 1 hr followed by insulin stimulation and measured after 5 mins by immunoblot analysis. Format: cell-based. The conditions noted are these: time 65.0 min.
The test system of data set [6] is DiFi. Briefly: Antiproliferative activity against human DiFi cells assessed as percentage of viable cells at 1 uM measured after 24 hrs by coulter counter method (reference value: 98+/-0.8%). The data set is classed as functional.
Data set [7] can be described thus: Antiproliferative activity against raf-transformed mouse NIH3T3 cells assessed as inhibition of cell viability. The data set is classed as toxicity, cell-based.
Data set [8] relates to HN5. In words: Antiproliferative activity against human HN5 cells assessed as inhibition of cell viability at 50 nM. The data set is classed as functional, cell-based.
In data set [9] the test system is HN5. In words: Antiproliferative activity against human HN5 cells assessed as inhibition of cell viability at 250 nM relative to control. The data set is classed as functional.
Data set [10] relates to HN5. Briefly: Induction of cell cycle arrest in human HN5 cells assessed as reduction in accumulation of cells in S phase at 1 uM measured after 48 hrs by PI staining based flow cytometry analysis (reference value: 55%). The data set is classed as functional. The arrangement: scale not given: the % may be the effect or the level left. In general terms: In flow cytometry, cells or beads pass a laser one at a time.

In data set [11] the test system is HN5. Briefly: Induction of cell cycle arrest in human HN5 cells assessed as increase in accumulation of cells in G1 phase at 1 uM measured after 48 hrs by PI staining based flow cytometry analysis (reference value: 24%). The data set is classed as functional.
Data set [12] deals with DiFi. In words: Induction of cell cycle arrest in human DiFi cells assessed as decrease in cell percentage in S phase at 0.1 uM measured after 24 hrs by BrdUrd incorporation based flow cytometry analysis (reference value: 14 +- 0.5%). Format: functional. Also noted: scale not given: the % may be the effect or the level left.
Data set [13] deals with DiFi. Briefly: Induction of cell cycle arrest in human DiFi cells assessed as decrease in cell percentage in S phase at 1 uM measured after 24 hrs by BrdUrd incorporation based flow cytometry analysis (reference value: 14 +- 0.5%). The data set is classed as functional. Also noted: scale not given: the % may be the effect or the level left.
Data set [14] relates to DiFi. Briefly: Induction of cell cycle arrest in human DiFi cells assessed as increase in cell percentage in G1 phase at 0.1 uM measured after 24 hrs by BrdUrd incorporation based flow cytometry analysis (reference value: 82 +- 0.9%). Format: functional.
For data set [15], the system named is DiFi. In words: Induction of cell cycle arrest in human DiFi cells assessed as increase in cell percentage in G1 phase at 1 uM measured after 24 hrs by BrdUrd incorporation based flow cytometry analysis (reference value: 82 +- 0.9%). The data set is classed as functional.
In data set [16] the test system is DiFi. In words: Induction of apoptosis in human DiFi cells assessed as accumulation of cells at sub-G1 phase at 1 uM measured after 24 hrs by PI staining based flow cytometry analysis. Format: functional, cell-based.
Data set [17] has as its system HN5. In words: Induction of apoptosis in human HN5 cells assessed as decrease in cell population at 1 uM measured after 24 hrs by PI staining based flow cytometry analysis. Format: functional.
Data set [18] relates to DiFi. Briefly: Induction of apoptosis in human DiFi cells assessed as accumulation of cells at sub-G1 phase at 1 uM measured after 24 hrs in presence of IGF-1 by PI staining based flow cytometry analysis. The data set is classed as functional, cell-based.
The test system of data set [19] is DiFi. Briefly: Induction of apoptosis in human DiFi cells assessed as DNA fragmentation by measuring DNA ladders at 1 uM measured after 24 hrs by agarose gel electrophoresis analysis. The data set is classed as functional, cell-based.
The test system of data set [20] is DiFi. In words: Induction of apoptosis in human DiFi cells assessed as DNA fragmentation at 1 uM measured after 24 hrs in presence of IGF-1 by agarose gel electrophoresis analysis. The data set is classed as functional, cell-based.
For data set [21], the system named is DiFi. In words: Induction of apoptosis in human DiFi cells assessed as decrease in number of normal cells at 1 uM incubated for 24 hrs by annexin V-FITC and PI staining based flow cytometry analysis. Format: functional, cell-based.
For data set [22], the system named is DiFi. In words: Induction of apoptosis in human DiFi cells assessed as increase in number of necrotic cells at 1 uM incubated for 24 hrs by annexin V-FITC and PI staining based flow cytometry analysis. The data set is classed as functional, cell-based.
The test system of data set [23] is DiFi. In words: Induction of apoptosis in human DiFi cells assessed as protection of annexin V-FITC binding at 1 uM incubated for 24 hrs in presence of IGF-1 by annexin V-FITC and PI staining based flow cytometry analysis relative to control. The data set is classed as functional.
The test system of data set [24] is DiFi. Briefly: Induction of PARP cleavage in human DiFi cells assessed as decrease in Mr 116000 fragments at 1 uM incubated for 24 hrs by Western blotting analysis. Format: functional, cell-based.
Data set [25] has as its system DiFi. Briefly: Induction of PARP cleavage in human DiFi cells assessed as increase in Mr 85000 fragments at 1 uM incubated for 24 hrs by Western blotting analysis. The data set is classed as functional, cell-based.
Data set [26] concerns DiFi. Briefly: Induction of PARP cleavage in human DiFi cells assessed as increase in Mr 85000 fragments at 8 ug/ml […] incubated for 24 hrs by Western blotting analysis. The data set is classed as functional, cell-based. Conditions: dose 8.0 µg/ml.
Data set [27] concerns DiFi. In words: Induction of PARP cleavage in human DiFi cells assessed as decrease in Mr 116000 fragments at 1 uM incubated for 24 hrs in presence of IGF-1 by Western blotting analysis. Format: functional, cell-based.
For data set [28], the system named is DiFi. Briefly: Induction of PARP cleavage in human DiFi cells assessed as increase in Mr 85000 fragments at 1 uM incubated for 24 hrs in presence of IGF-1 by Western blotting analysis. The data set is classed as functional, cell-based.
The test system of data set [29] is DiFi. In words: Induction of cell cycle arrest in human DiFi cells assessed as accumulation of cells at G1 phase at 1 uM incubated for 24 hrs by PI staining based flow cytometry analysis (reference value: 64%). The data set is classed as functional.
Data set [30] deals with DiFi. Briefly: Induction of cell cycle arrest in human DiFi cells assessed as accumulation of cells at S phase at 1 uM incubated for 24 hrs by PI staining based flow cytometry analysis (reference value: 8 %). Format: functional.
Data set [31] relates to DiFi. In words: Induction of cell cycle arrest in human DiFi cells assessed as accumulation of cells at G2 phase at 1 uM incubated for 24 hrs by PI staining based flow cytometry analysis (reference value: 28%). The data set is classed as functional.
The subject of data set [32] is DiFi. In words: Induction of apoptosis in human DiFi cells at 1 uM incubated for 24 hrs by PI staining based flow cytometry analysis (reference value: 2.3%). The data set is classed as functional.
The test system of data set [33] is DiFi. Briefly: Induction of apoptosis in human DiFi cells at 1 uM measured after 24 hrs by annexin V-FITC and PI staining based flow cytometry analysis (reference value: 6%). The data set is classed as functional.
In data set [34] the test system is DiFi. In words: Induction of cell cycle arrest in human DiFi cells assessed as accumulation of cells at G1 phase at 1 uM incubated for 24 hrs in presence of IGF-1 by PI staining based flow cytometry analysis (reference value: 64%). Format: functional.
The subject of data set [35] is DiFi. Briefly: Induction of cell cycle arrest in human DiFi cells assessed as accumulation of cells at S phase at 1 uM incubated for 24 hrs in presence of IGF-1 by PI staining based flow cytometry analysis (reference value: 8 %). Format: functional.
The test system of data set [36] is DiFi. Briefly: Induction of cell cycle arrest in human DiFi cells assessed as accumulation of cells at G2 phase at 1 uM incubated for 24 hrs in presence of IGF-1 by PI staining based flow cytometry analysis (reference value: 28%). The data set is classed as functional.
The test system of data set [37] is DiFi. In words: Induction of apoptosis in human DiFi cells at 1 uM incubated for 24 hrs in presence of IGF-1 by PI staining based flow cytometry analysis (reference value: 2.3%). The data set is classed as functional.
Data set [38] has as its system DiFi. In words: Induction of apoptosis in human DiFi cells at 1 uM measured after 24 hrs in presence of IGF-1 by annexin V-FITC and PI staining based flow cytometry analysis (reference value: 6%). Format: functional.

Sequence of Insulin-like growth factor 1 receptor (Homo sapiens) (P08069 31-736 limits assumed): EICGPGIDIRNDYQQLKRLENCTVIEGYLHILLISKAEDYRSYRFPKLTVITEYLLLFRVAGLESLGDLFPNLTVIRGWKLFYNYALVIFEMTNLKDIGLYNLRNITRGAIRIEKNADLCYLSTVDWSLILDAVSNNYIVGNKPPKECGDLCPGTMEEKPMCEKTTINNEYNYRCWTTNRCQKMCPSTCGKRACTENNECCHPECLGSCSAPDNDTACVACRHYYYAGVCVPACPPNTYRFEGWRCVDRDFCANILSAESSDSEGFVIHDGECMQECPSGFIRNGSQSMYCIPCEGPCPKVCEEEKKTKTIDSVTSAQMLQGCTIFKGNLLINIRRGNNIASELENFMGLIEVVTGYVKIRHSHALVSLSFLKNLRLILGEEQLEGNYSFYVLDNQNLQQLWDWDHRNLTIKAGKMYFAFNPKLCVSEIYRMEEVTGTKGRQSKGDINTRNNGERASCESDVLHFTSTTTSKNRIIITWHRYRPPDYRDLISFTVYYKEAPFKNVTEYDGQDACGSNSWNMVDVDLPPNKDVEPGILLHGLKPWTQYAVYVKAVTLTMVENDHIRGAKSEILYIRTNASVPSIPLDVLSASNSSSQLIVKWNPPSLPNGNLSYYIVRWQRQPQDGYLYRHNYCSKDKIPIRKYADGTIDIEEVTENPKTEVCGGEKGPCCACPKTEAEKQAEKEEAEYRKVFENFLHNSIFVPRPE
Sequence of Insulin-like growth factor 1 receptor (Homo sapiens) (P08069 741-1367 limits assumed): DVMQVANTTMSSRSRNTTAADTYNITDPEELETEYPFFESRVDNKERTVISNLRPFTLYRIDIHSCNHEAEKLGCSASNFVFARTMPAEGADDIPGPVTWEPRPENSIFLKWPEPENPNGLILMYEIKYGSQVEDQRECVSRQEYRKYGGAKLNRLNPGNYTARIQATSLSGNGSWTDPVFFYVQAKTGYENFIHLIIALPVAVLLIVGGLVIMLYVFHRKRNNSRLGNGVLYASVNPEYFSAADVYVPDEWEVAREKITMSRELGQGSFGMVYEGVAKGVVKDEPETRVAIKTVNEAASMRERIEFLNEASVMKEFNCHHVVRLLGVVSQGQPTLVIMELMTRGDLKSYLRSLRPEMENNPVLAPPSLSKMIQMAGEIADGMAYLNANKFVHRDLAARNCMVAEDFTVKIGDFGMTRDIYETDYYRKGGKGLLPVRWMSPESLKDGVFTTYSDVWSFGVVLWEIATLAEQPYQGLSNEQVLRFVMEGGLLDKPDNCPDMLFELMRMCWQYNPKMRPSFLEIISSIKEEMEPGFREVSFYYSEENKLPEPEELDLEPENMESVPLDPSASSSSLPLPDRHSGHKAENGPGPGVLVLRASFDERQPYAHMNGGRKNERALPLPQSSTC
Sequence of Insulin receptor (Homo sapiens) (P06213 28-758 limits assumed): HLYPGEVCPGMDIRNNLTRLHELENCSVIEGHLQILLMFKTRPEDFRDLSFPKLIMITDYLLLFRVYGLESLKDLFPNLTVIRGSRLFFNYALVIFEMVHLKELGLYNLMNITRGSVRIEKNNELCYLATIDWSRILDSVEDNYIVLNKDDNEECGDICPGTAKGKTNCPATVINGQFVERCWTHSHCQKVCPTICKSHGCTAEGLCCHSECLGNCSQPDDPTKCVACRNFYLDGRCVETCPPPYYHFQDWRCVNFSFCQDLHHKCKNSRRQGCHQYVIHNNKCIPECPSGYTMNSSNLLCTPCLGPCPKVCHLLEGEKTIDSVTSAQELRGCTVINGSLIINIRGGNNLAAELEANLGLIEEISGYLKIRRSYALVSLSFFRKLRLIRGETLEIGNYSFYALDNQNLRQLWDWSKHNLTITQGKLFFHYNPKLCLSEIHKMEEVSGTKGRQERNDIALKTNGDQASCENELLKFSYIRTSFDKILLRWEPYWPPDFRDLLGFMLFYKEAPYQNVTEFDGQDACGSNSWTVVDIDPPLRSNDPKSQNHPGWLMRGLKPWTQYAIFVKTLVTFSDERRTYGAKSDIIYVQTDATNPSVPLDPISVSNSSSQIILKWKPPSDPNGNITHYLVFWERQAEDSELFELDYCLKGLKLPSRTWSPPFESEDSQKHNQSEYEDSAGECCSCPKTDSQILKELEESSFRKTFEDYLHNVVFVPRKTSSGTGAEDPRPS
Sequence of Insulin receptor (Homo sapiens) (P06213 763-1382 limits assumed): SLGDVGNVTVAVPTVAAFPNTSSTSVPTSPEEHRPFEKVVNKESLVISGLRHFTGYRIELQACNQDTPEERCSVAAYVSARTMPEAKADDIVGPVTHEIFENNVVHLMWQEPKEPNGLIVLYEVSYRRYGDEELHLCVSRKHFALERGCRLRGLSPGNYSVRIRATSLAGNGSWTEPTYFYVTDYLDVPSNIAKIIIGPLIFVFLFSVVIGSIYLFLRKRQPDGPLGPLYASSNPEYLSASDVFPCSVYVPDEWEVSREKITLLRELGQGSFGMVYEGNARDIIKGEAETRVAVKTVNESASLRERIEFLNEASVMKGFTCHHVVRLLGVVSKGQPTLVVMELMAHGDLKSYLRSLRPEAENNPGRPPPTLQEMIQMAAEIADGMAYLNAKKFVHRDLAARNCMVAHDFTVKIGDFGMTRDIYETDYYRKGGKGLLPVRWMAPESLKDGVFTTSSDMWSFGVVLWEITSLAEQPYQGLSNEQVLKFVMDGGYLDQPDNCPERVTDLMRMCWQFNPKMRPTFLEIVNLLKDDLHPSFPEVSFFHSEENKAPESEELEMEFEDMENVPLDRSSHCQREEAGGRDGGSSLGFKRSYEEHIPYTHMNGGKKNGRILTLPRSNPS

Turning to `N#CC(C#N)=Cc1cc(O)c(O)c(O)c1`, the inhibition – broadly, the change of the read-out against control, counted positive when it falls – in [1] is 50%.
Take `C#Cc1cccc(Nc2ncnc3cc(OCCOC)c(OCCOC)cc23)c1` [ERLOTINIB]: the inhibition result in data set [2], in data set [3], in data set [4] and in [5] was “inactive” in each case. In addition, the Activity is 97% with DiFi [6]; 100% in the data set with HN5 [9]; 24% in the data set with HN5 [10]; 56% in the data set with HN5 [11]; 9% in the data set with DiFi [12]; 0.7% in the data set with DiFi [13]. The Activity in the data set with DiFi [14] was determined as 85%; in the data set with DiFi [15], 95%; with DiFi [23], 100%; with DiFi [29] it was 77%; in the data set on DiFi [30], 5%; in the data set on DiFi [31], 18%. In addition, the Activity in the data set with DiFi [32] came to 17%; in the data set with DiFi [33], 21%; with DiFi [34], 77%; in the data set with DiFi [35], 2%; with DiFi [36], 21%; with DiFi [37], 7.4%. The Activity with DiFi [38] amounted to 6%. The IC50 (usually the point on the concentration scale where inhibition reaches its midpoint) in data set [7] was found to be 7 µM. Besides, the outcome in the data set on HN5 [8], with DiFi [16], in the data set with HN5 [17], in the data set with DiFi [19], in the data set with DiFi [21] and in the data set with DiFi [24] was Active. In addition, the outcome with DiFi [25] and in the data set on DiFi [26] was Active. The result in the data set with DiFi [18], with DiFi [20], in the data set on DiFi [22], in the data set on DiFi [27] and in the data set on DiFi [28] was inactive.
